Here are results for six compounds from US4946852A, “4(R)-substituted 6(S)-phenoxymethyl-, 6(S)-β-phenylethyl- and 6(S)-β-styryl-tetrahydropyran-2-ones, a highly stereoselective process for their preparation, pharmaceutical products based on these compounds, and their use” (Hoechst Aktiengesellschaft, priority 1986, dated 1990).

The target in the experiment is T1, HMG-CoA reductase (Rattus norvegicus, UniProt P51639).
T1 sequence (P51639 1-887): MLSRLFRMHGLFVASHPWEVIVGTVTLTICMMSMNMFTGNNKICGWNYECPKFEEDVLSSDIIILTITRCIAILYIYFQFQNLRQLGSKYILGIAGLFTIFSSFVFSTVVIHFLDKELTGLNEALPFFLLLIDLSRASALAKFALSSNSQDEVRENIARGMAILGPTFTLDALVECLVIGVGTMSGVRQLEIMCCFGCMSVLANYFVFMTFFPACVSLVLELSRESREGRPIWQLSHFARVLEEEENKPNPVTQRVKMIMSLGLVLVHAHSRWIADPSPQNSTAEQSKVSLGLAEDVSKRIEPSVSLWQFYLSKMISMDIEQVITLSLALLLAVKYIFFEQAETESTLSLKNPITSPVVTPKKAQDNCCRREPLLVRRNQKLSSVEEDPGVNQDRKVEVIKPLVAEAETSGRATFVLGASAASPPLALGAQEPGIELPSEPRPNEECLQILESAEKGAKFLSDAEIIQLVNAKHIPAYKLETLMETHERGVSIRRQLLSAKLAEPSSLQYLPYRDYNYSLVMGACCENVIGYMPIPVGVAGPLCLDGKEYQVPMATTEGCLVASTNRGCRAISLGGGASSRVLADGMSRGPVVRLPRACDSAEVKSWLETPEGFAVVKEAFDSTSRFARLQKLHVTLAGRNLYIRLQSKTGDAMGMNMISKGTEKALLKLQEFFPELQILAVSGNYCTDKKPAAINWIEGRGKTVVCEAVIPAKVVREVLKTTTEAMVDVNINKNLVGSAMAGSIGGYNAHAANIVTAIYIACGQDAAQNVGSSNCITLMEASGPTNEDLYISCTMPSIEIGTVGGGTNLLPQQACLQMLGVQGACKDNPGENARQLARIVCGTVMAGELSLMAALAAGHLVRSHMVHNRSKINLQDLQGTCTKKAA
In words: Inhibition of HMG-CoA reductase activity on solubilized enzyme preparations from rat liver microsomes. Type of experiment: biochemical. The note with it: solubilized rat-liver microsomal enzyme; for IC50: molar concentration required for 50% inhibition, (S,R) 14C-HMG-CoA substrate, mean of 3 parallel samples.

Molecules are shown by their SMILES.

What is called IC50 is the concentration that gives 50% inhibition. The low end stands for inhibition by little substance, the high end for a need for much substance. `Cc1cc(C)c(OC[C@@H]2C[C@@H](SCCO)CC(=O)O2)c(CCCOc2ccc(F)cc2)c1` [Vd, 6S-({[2-(4-Fluorophenoxy-3-propyl)]-4,6-dimethylphenoxy}methyl)-4R-β-hydroxyethylmercapto-3,4,5,6-tetrahydro-2H-pyran-2-one] showed an IC50 of 1000 nM.

Take `Cc1cc(C)c(OC[C@@H]2C[C@@H](SCc3ccccc3)CC(=O)O2)c(CCCOc2ccc(F)cc2)c1` [Vc, 6S-({[2-(4-Fluorophenoxy-3-propyl)]-4,6-dimethylphenoxy}methyl)-4R-benzylmercapto-3,4,5,6-tetrahydro-2H-pyran-2-one]: the IC50 is roughly 100000 nM.

Broadly, the inhibition is the percentage by which the read-out fell short of the control. Low readings indicate little suppression, high ones strong suppression. Take `Cc1cc(C)c(OC[C@@H]2C[C@@H](SC[C@H](N)C(=O)O)CC(=O)O2)c(CCCOc2ccc(F)cc2)c1` [Ve, 6S-({[2-(4-Fluorophenoxy-3-propyl)]-4,6-dimethylphenoxy}methyl)-4R-[(R)-2-amino-3-mercaptyl-propionic acid]-3,4,5,6-tetrahydro-2H-pyran-2-one]: the inhibition runs as follows: (at 10^-6) 37%; (at 10^-7) 24%.

Consider `CC(=O)S[C@H]1CC(=O)O[C@H](COc2c(C)cc(C)cc2CCCOc2ccc(F)cc2)C1` [Va, 6S-({[2-(4-Fluorophenoxy-3-propyl)]-4,6-dimethylphenoxy}methyl)-4R-acetylmercapto-3,4,5,6-tetrahydro-2H-pyran-2-one], for which 300 nM corresponded to half-maximal inhibition (IC50).

In turn, `Cc1cc(C)c(OC[C@@H](O)C[C@@H](O)CC(=O)O)c(CCCOc2ccc(F)cc2)c1` [reference compound] had an IC50 of 200 nM.

`Cc1cc(C)c(OC[C@@H]2C[C@@H](O)CC(=O)O2)c(CCCOc2ccc(F)cc2)c1` [A, 6(S)-{4,6-dimethyl-2-[3-(4-fluorophenoxy)propyl]phenoxymethyl}-3,4,5,6-tetrahydro-4(R)-hydroxy-2H-pyran-2-one, reference compound] gave an IC50 of 1000 nM.
